# Experimental data: US20250234861A1, “LACTONES FOR ENHANCING THE ACTIVITY OF ANTIMICROBIAL AGENTS” (BASF SE, priority 2021, published 2025)
# Tests used:
# Assay type in all cases: cell-based
# [1] = test system: bacterial mix consisting of Escherichia coli DSM 1576, Alcaligenes faecalis DSM 13644, Pseudomonas aeruginosa ATCC 15442, Staphylococcus aureus ATCC 6538 …; test: Example 2.3: preservative activity of a basic composition (pH 7, 10% PG) using 1,2-benzisothiazol-3(2H)-one (BIT), bacterial challenge; conditions: day 7
# Experimental: An aqueous composition of pH 7 comprising 10% by weight of propyleneglycol (PG) as organic solvent, 0.004% by weight of 1,2-benzisothiazol-3(2H)-one (BIT) as antimicrobial and the lactone listed in the below table was tested for its preserving activity against bacterial contamination (the weight percentages relate to the total weight of the composition). For this purpose, the samples were contaminated with a bacterial mix consisting of: • Escherichia coli DSM 1576 • Alcaligenes faecalis DSM 13644 • Pseudomonas aeruginosa ATCC 15442 • Staphylococcus aureus ATCC 6538 • Burkholderia cepacia DSM 7288 • Pseudomonas putida DSM 12735
# The samples were inoculated with the bacterial mix at day 0 to obtain 10E+06 to 10E+07 CFU/ml inoculation in the test sample and stored at 25° C. for 7 days.
# (§1) CFU was determined at day 7.
# Any CFU value at day 7 (d7) obtained with a sample according to the invention containing BIT and lactone (10% PG+0.004% BIT+x % of Lactone) that is lower than the respective value of the “comparative 2” example (10% PG+0.004% BIT) indicates a better performance.
# [2] = test system: fungal mix consisting of Aspergillus brasiliensis DSM 1988, Rhodotorula mucilaginosa DSM 13621, Yarrowialipolytica DSM 8218; test: Example 1.2: preservative activity in a manual dishwashing composition (MDW, pH 7.1) using 2-phenoxyethanol (PE), fungal challenge; conditions: for d7 CFU: day 7; for d14 CFU: day 14; for d21 CFU: day 21
# Experimental: (§2) A manual dish wash detergent (MWD) of pH 7.1 containing the following components was used:
# (§3) The samples were contaminated with a fungal mix consisting of: • Aspergillus brasiliensis DSM 1988 • Rhodotorula mucilaginosa DSM 13621 • Yarrowialipolytica DSM 8218
# (§4) The samples were inoculated with the fungal mix at day 0 and 7 to obtain 1-3×10E+05 CFU/ml inoculation in the test sample consisting of the above-defined dish wash detergent MDW and stored at 25° C. for 21 days. CFU was determined before re-inoculation at day 7, and on days 14 and 21.
# (§5) Any CFU value at d7, d14 or d21 obtained with a MDW sample of the invention containing 2-phenoxyethanol and lactone (MDW+1.0% PE+x % of Lactone) lower than the respective value of the “comparative 2” example (MDW+1.0% by weight of 2-Phenoxyethanol) indicates a better performance of the inventive combination of 2-phenoxyethanol with the lactone.
# [3] = test system: fungal mix consisting of Aspergillus brasiliensis DSM 1988, Rhodotorula mucilaginosa DSM 13621, Yarrowialipolytica DSM 8218; test: Example 1.3: preservative activity in a manual dishwashing composition (MDW, pH 7.1) using 2-phenoxyethanol (PE), fungal challenge; conditions: for d7 CFU: day 7; for d14 CFU: day 14; for d21 CFU: day 21
# Experimental: as §2, §3, §4, §5
# [4] = test system: bacterial mix consisting of Escherichia coli DSM 1576, Alcaligenes faecalis DSM 13644, Pseudomonas aeruginosa ATCC 15442, Staphylococcus aureus ATCC 6538 …; test: Example 2.1: preservative activity in a manual dishwashing composition (MDW, pH 7.1) using 2-phenoxyethanol (PE), bacterial challenge; conditions: for d7 CFU: day 7; for d14 CFU: day 14; for d21 CFU: day 21
# Experimental: as §2
# The samples were contaminated with a bacterial mix consisting of: • Escherichia coli DSM 1576 • Alcaligenes faecalis DSM 13644 • Pseudomonas aeruginosa ATCC 15442 • Staphylococcus aureus ATCC 6538 • Burkholderia cepacia DSM 7288 • Pseudomonas putida DSM 12735
# The samples were inoculated with the bacterial mix at day 0 and 7 to obtain 10E+06 to 10E+07 CFU/ml inoculation in the test sample and stored at 25° C. for 21 days. CFU was determined before re-inoculation at day 7 and on days 14 and 21.
# Any CFU value at day 7 (d7), day 14 (d14) or day 21 (d21) obtained with a sample according to the invention containing 2-phenoxyethanol and lactone (MDW+1.0% PE+x % Lactone) lower than the respective value of the “comparative 2” example (MDW+1.0% by weight of 2-Phenoxyethanol) indicates a better performance.
# [5] = test system: Pseudomonas aeruginosa ATCC 15442; test: Example 2.4: preservative activity of a basic composition (pH 5, 10% PG) using sodium benzoate, bacterial challenge; conditions: day 7
# Experimental: An aqueous composition of pH 5 comprising 10% by weight of propyleneglycol (PG) as organic solvent, sodium benzoate as antimicrobial and 0.18% by weight of γ-valerolactone was tested for its preserving activity against bacterial contamination (the weight percentages relate to the total weight of the composition). For this purpose, the samples were contaminated with a bacterial suspension of Pseudomonas aeruginosa ATCC 15442.
# The samples were inoculated with the bacterial suspension at day 0 to obtain 6.1×10E+07 CFU/ml inoculation in the test sample and stored at 25° C. for 7 days.
# as §1
# Any CFU value at day 7 (d7) obtained with a sample according to the invention containing sodium benzoate and lactone (10% PG+x % sodium benzoate+0.18% of Lactone) lower than the respective value of the “comparative 2” example (10% PG+0.5% sodium benzoate) or “comparative 3” example (10% PG+0.85% sodium benzoate) indicates a better performance.
# [6] = MDW pH 7.1 + 1.0% of the substance alone (comparative), fungal mix inoculated day 0 and 7, 25° C.
# [7] = MDW pH 7.1 + 1.0% of the substance alone (comparative), fungal mix
# [8] = MDW pH 7.1 + 1.0% of the substance alone (comparative), bacterial mix inoculated day 0 and 7, 25° C.
# [9] = MDW pH 7.1 + 1.0% of the substance alone (comparative), bacterial mix
# [10] = MDW + 1.0% PE + 1% of lactone, bacterial mix
# [11] = MDW + 1.0% PE + 1% of lactone, fungal mix
# [12] = MDW + 1.0% PE + 2% of lactone, fungal mix
smiles,measurement,setting,value
"O=c1[nH]sc2ccccc12 [BIT, 1,2-benzisothiazol-3(2H)-one, reference compound]",d7 [CFU/ml],"[1]; 10% PG, pH 7 + 0.004% BIT alone (Comparative 2)",">100,000 CFU/ml"
OCCOc1ccccc1 [Phenoxyethanol (PE)],d7 CFU,[2]; [6],"34,500 CFU"
same,d14 CFU,[2]; [6],"16,500 CFU"
same,d21 CFU,[2]; [6],"3,800 CFU"
same,d7 CFU,[3]; [6],">100,000 CFU"
same,d14 CFU,[3]; [7],">100,000 CFU"
same,d21 CFU,[3]; [7],">100,000 CFU"
same,d7 CFU,[4]; [8],625 CFU
same,d14 CFU,[4]; [9],">100,000 CFU"
same,d21 CFU,[4]; [9],">100,000 CFU"
CCCCCC1CCC(=O)O1 (centres unmarked) [Y-Nonalactone],d7 CFU,[4]; [8],"8,400 CFU"
same,d14 CFU,[4]; [9],">100,000 CFU"
same,d21 CFU,[4]; [9],">100,000 CFU"
"O=C([O-])c1ccccc1.[Na+] [sodium benzoate, reference compound]",d7 [CFU/ml],"[5]; 10% PG, pH 5 + 0.5% sodium benzoate alone (Comparative 2)",">100,000 CFU/ml"
same,d7 [CFU/ml],"[5]; 10% PG, pH 5 + 0.85% sodium benzoate alone (Comparative 3)",">100,000 CFU/ml"
CCCCCCC1CCC(=O)O1 (centres unmarked) [y-Decalactone],d7 CFU,[4]; [10],<10 CFU
same,d14 CFU,[4]; [10],<10 CFU
same,d21 CFU,[4]; [10],<10 CFU
same,d7 CFU,[4]; [8],">100,000 CFU"
same,d14 CFU,[4]; [9],">100,000 CFU"
same,d21 CFU,[4]; [9],">100,000 CFU"
CCCCCC1CCC(=O)O1 (centres unmarked) [y-Nonalactone],d7 CFU,[4]; [10],<10 CFU
same,d14 CFU,[4]; [10],<10 CFU
same,d21 CFU,[4]; [10],<10 CFU
CCCCCCC1CCC(=O)O1 (centres unmarked) [γ-Decalactone],d7 CFU,[3]; [11],"24,500 CFU"
same,d14 CFU,[3]; [11],"13,000 CFU"
same,d21 CFU,[3]; [11],1200 CFU
same,d7 CFU,[3]; [6],">100,000 CFU"
same,d14 CFU,[3]; [7],">100,000 CFU"
same,d21 CFU,[3]; [7],">100,000 CFU"
CCCCCC1CCC(=O)O1 (centres unmarked) [γ-nonalactone],d7 CFU,[3]; [11],"4,100 CFU"
same,d14 CFU,[3]; [11],"5,000 CFU"
same,d21 CFU,[3]; [11],150 CFU
same,d7 CFU,[3]; [6],">100,000 CFU"
same,d14 CFU,[3]; [7],">100,000 CFU"
same,d21 CFU,[3]; [7],">100,000 CFU"
CC1CCC(=O)O1 (centres unmarked) [γ-valerolactone],d7 CFU,[2]; [11],"3,500 CFU"
same,d14 CFU,[2]; [11],"3,600 CFU"
same,d21 CFU,[2]; [11],385 CFU
same,d7 CFU,[2]; [12],85 CFU
same,d14 CFU,[2]; [12],95 CFU
same,d21 CFU,[2]; [12],<10 CFU
same,d7 CFU,[2]; [6],"12,000 CFU"
same,d14 CFU,[2]; [6],"24,500 CFU"
same,d21 CFU,[2]; [6],"2,500 CFU"
same,d7 [CFU/ml],[1]; 10% PG + 0.004% BIT + 0.04% of lactone,145 CFU/ml
same,d7 [CFU/ml],"[1]; 10% PG, pH 7 + 0.04% lactone alone (Comparative 1), 25° C.",">100,000 CFU/ml"
same,d7 [CFU/ml],[5]; 10% PG + 0.5% sodium benzoate + 0.18% of lactone,990 CFU/ml
same,d7 [CFU/ml],[5]; 10% PG + 0.85% sodium benzoate + 0.18% of lactone,890 CFU/ml
same,d7 [CFU/ml],"[5]; 10% PG, pH 5 + 0.18% lactone alone (Comparative 1), P. aeruginosa, 25° C.",">100,000 CFU/ml"
